Assay results: the NIST ThermoML archive (doi:10.1021/je900482x)

Experiment: isobaric coefficient of expansion
Conditions: Liquid, Microcalorimeter

CCn1cc[n+](C)c1.F[B-](F)(F)F [1-ethyl-3-methylimidazolium tetrafluoroborate]
isobaric coefficient of expansion
Conditions | 5000 kPa | 10000 kPa | 15000 kPa | 20000 kPa | 25000 kPa | 30000 kPa | 35000 kPa | 40000 kPa | 45000 kPa | 50000 kPa
278.15 K | 0.000613 1/K | 0.000605 1/K | 0.000596 1/K | 0.000591 1/K | 0.000585 1/K | 0.00058 1/K | 0.000574 1/K | 0.000567 1/K | 0.00056 1/K | 0.000555 1/K
288.15 K | 0.000614 1/K | 0.000602 1/K | 0.000591 1/K | 0.000587 1/K | 0.000581 1/K | 0.000574 1/K | 0.000569 1/K | 0.000561 1/K | 0.000556 1/K | 0.000554 1/K
298.15 K | 0.000601 1/K | 0.000596 1/K | 0.000587 1/K | 0.00058 1/K | 0.000575 1/K | 0.000568 1/K | 0.000561 1/K | 0.000554 1/K | 0.000549 1/K | 0.000545 1/K
308.15 K | 0.000597 1/K | 0.000589 1/K | 0.000581 1/K | 0.000573 1/K | 0.000566 1/K | 0.000561 1/K | 0.000554 1/K | 0.00055 1/K | 0.000542 1/K | 0.000537 1/K
318.15 K | 0.000589 1/K | 0.000585 1/K | 0.000576 1/K | 0.000569 1/K | 0.000563 1/K | 0.000556 1/K | 0.00055 1/K | 0.000544 1/K | 0.000537 1/K | 0.000532 1/K
328.15 K | 0.000585 1/K | 0.000578 1/K | 0.000573 1/K | 0.000566 1/K | 0.000557 1/K | 0.00055 1/K | 0.000544 1/K | 0.000537 1/K | 0.000533 1/K | 0.000528 1/K
338.15 K | 0.000582 1/K | 0.000574 1/K | 0.000569 1/K | 0.00056 1/K | 0.000553 1/K | 0.000549 1/K | 0.00054 1/K | 0.000534 1/K | 0.000529 1/K | 0.000525 1/K
348.15 K | 0.000579 1/K | 0.000574 1/K | 0.000566 1/K | 0.000562 1/K | 0.000554 1/K | 0.000546 1/K | 0.00054 1/K | 0.000533 1/K | 0.000527 1/K | 0.000521 1/K

CCCCCCn1cc[n+](C)c1.F[B-](F)(F)F [1-hexyl-3-methylimidazolium tetrafluoroborate]
isobaric coefficient of expansion
Conditions | 5000 kPa | 10000 kPa | 15000 kPa | 20000 kPa | 25000 kPa | 30000 kPa | 35000 kPa | 40000 kPa | 45000 kPa | 50000 kPa
278.15 K | 0.000621 1/K | 0.000613 1/K | 0.000605 1/K | 0.000598 1/K | 0.00059 1/K | 0.000584 1/K | 0.000576 1/K | 0.000572 1/K | 0.000562 1/K | 0.000558 1/K
288.15 K | 0.000616 1/K | 0.000606 1/K | 0.0006 1/K | 0.000593 1/K | 0.000586 1/K | 0.000579 1/K | 0.000572 1/K | 0.000565 1/K | 0.000558 1/K | 0.000555 1/K
298.15 K | 0.00061 1/K | 0.000603 1/K | 0.000595 1/K | 0.000586 1/K | 0.00058 1/K | 0.000573 1/K | 0.000564 1/K | 0.000558 1/K | 0.000552 1/K | 0.000547 1/K
308.15 K | 0.000605 1/K | 0.000596 1/K | 0.000589 1/K | 0.000579 1/K | 0.000572 1/K | 0.000565 1/K | 0.00056 1/K | 0.000553 1/K | 0.000545 1/K | 0.000541 1/K
318.15 K | 0.000599 1/K | 0.000594 1/K | 0.000585 1/K | 0.000573 1/K | 0.000566 1/K | 0.00056 1/K | 0.000554 1/K | 0.000545 1/K | 0.000537 1/K | 0.000532 1/K
328.15 K | 0.000594 1/K | 0.000587 1/K | 0.00058 1/K | 0.000572 1/K | 0.000562 1/K | 0.000555 1/K | 0.000549 1/K | 0.00054 1/K | 0.000536 1/K | 0.000531 1/K
338.15 K | 0.000591 1/K | 0.000584 1/K | 0.000575 1/K | 0.000567 1/K | 0.000558 1/K | 0.000553 1/K | 0.000544 1/K | 0.000538 1/K | 0.000532 1/K | 0.000528 1/K
348.15 K | 0.000588 1/K | 0.000582 1/K | 0.000572 1/K | 0.000563 1/K | 0.000555 1/K | 0.000548 1/K | 0.000543 1/K | 0.000535 1/K | 0.000529 1/K | 0.000522 1/K

CCCCCCCC[n+]1ccn(C)c1.F[B-](F)(F)F [1-methyl-3-octylimidazolium tetrafluoroborate]
isobaric coefficient of expansion
Conditions | 5000 kPa | 10000 kPa | 15000 kPa | 20000 kPa | 25000 kPa | 30000 kPa | 35000 kPa | 40000 kPa | 45000 kPa | 50000 kPa
278.15 K | 0.000621 1/K | 0.000613 1/K | 0.000605 1/K | 0.000598 1/K | 0.00059 1/K | 0.000584 1/K | 0.000576 1/K | 0.000572 1/K | 0.000562 1/K | 0.000558 1/K
288.15 K | 0.000616 1/K | 0.000606 1/K | 0.0006 1/K | 0.000593 1/K | 0.000586 1/K | 0.000579 1/K | 0.000572 1/K | 0.000565 1/K | 0.000558 1/K | 0.000555 1/K
298.15 K | 0.00061 1/K | 0.000603 1/K | 0.000595 1/K | 0.000586 1/K | 0.00058 1/K | 0.000573 1/K | 0.000564 1/K | 0.000558 1/K | 0.000552 1/K | 0.000547 1/K
308.15 K | 0.000605 1/K | 0.000596 1/K | 0.000589 1/K | 0.000579 1/K | 0.000572 1/K | 0.000565 1/K | 0.00056 1/K | 0.000553 1/K | 0.000545 1/K | 0.000541 1/K
318.15 K | 0.000599 1/K | 0.000594 1/K | 0.000585 1/K | 0.000573 1/K | 0.000566 1/K | 0.00056 1/K | 0.000554 1/K | 0.000545 1/K | 0.000537 1/K | 0.000532 1/K
328.15 K | 0.000594 1/K | 0.000587 1/K | 0.00058 1/K | 0.000572 1/K | 0.000562 1/K | 0.000555 1/K | 0.000549 1/K | 0.00054 1/K | 0.000536 1/K | 0.000531 1/K
338.15 K | 0.000591 1/K | 0.000584 1/K | 0.000575 1/K | 0.000567 1/K | 0.000558 1/K | 0.000553 1/K | 0.000544 1/K | 0.000538 1/K | 0.000532 1/K | 0.000528 1/K
348.15 K | 0.000588 1/K | 0.000582 1/K | 0.000572 1/K | 0.000563 1/K | 0.000555 1/K | 0.000548 1/K | 0.000543 1/K | 0.000535 1/K | 0.000529 1/K | 0.000522 1/K
